Patent publication US4077981A, “Certain 1-alkyl-2-dichlorophenyliminopyrrolidines” (Bayer Aktiengesellschaft, priority 1968, dated 1978)

How the values were obtained:
[1] = tested on: Boophilus microplus, Biarra strain (resistant); experiment: In-vitro test for ovicidal effect on ticks (Biarra strain); conditions: for Ovicidal effect: 50% inhibition with the stated concentration of active compound: Table 4, concentration giving 50% inhibition; for Ovicidal effect: >50% inhibition with the stated concentration of active compound: concentration giving >50% inhibition
Protocol: (§1) In-vitro Test for Ovicidal Effect on Ticks
The emulsion concentrate so obtained is diluted with water to the application concentration desired in each case.
After immersion of, in each case, 10 female specimens of the various strains of ticks, the individual ticks are transferred to plastic dishes, the bottom of each of which is covered with a disc of filter paper.

Boophilus, Biarra strain [2] = experiment: In-vitro test for adulticidal effect on ticks (24 hours); design: species or system Boophilus microplus; conditions: Table 4, after 24 hours, at the concentrations stated
Protocol: (§2) In addition, the adulticidal effectiveness of the preparation of the given active compound after 24 hours is determined by ascertaining the voluntary movement of limbs and bodies of the immersed adult ticks after stimulation with a fine needle compared with the voluntary movement of limbs and bodies of the untreated adult ticks. The effectiveness is stated in %, 100% meaning that no movements of any kind of the limbs and bodies were any longer detectable, and 0% signifying that the ticks moved limbs and bodies in normal manner.

Boophilus, Biarra strain [3] = experiment: In-vitro test for ovicidal and adulticidal effect on ticks; design: species or system Boophilus microplus
Protocol: In-vitro test for ovicidal and adulticidal effect on ticks
The ovicidal effect is determined as stated in Example 1.
as §2
The results below were obtained in a similar manner to those in accordance with Example 4.

[4] = tested on: Boophilus microplus, Biarra strain; experiment: In-vivo test against ticks on cattle; design: species or system Boophilus microplus (on cattle); conditions: 0.3%; for Total number of female adult ticks which reach development on the cattle: total 1-21 days
Protocol: In-vivo test against ticks on cattle
3 parts of the particular active compound are mixed with 7 parts of a mixture of equal parts by weight of ethyleneglycol monomethyl ether and nonylphenyl polyglycol ether. The emulsion concentrate so obtained is diluted with water to the application concentration desired in each case.
Cattle which have been infected (12 times at intervals of 2 days) with resistant larvae of ticks of the species Boophilus microplus, Biarra strain, are sprayed on the 24th day after the first infection with the preparation of the given active compound so obtained.
The effect of the preparation of the given active compound is determined by ascertaining the number of adult female ticks which have reached development on the treated cattle and later lay viable eggs. This number is compared with the number of adult femal ticks which have reached development on untreated cattle.
As a measure of the intensity of the infestation before treatment, there is used the number of adult females which reach development in the case of the treated and untreated animals in the last three days before the time of treatment.

[5] = tested on: Boophilus microplus, Ridgeland strain (resistant); experiment: In-vitro test for ovicidal effect on ticks (Ridgeland strain); conditions: Table 1b, * Ridgeland strain; for Ovicidal effect: 100% inhibition with the stated concentration of active compound: concentration giving 100% inhibition; for Ovicidal effect: >50% inhibition with the stated concentration of active compound: concentration giving >50% inhibition
Protocol: as §1
3 g of the particular active compound are mixed with 7 g of a mixture of equal parts by weight of ethyleneglycol monomethyl ether and nonylphenyl polyglycol ether. The emulsion concentrate so obtained is diluted with water to the application concentration desired in each case.
Adult, fully engorged female ticks of the species Boophilus microplus (resistant) are immersed for 1 minute in this preparation of the given active compound. After immersion of, in each case, 10 female specimens of the various strains of ticks, the individual ticks are transferred to plastic dishes, the bottom of each of which is covered with a disc of filter paper. As a control, similar ticks of a normally sensitive strain are treated in exactly the same manner.
After 35 days, the effectiveness of the preparation of the given active compound is determined by ascertaining the inhibition of the depositing of fertile eggs compared with the egg depositing of untreated control ticks. The effect is stated in %, 100% meaning that fertile eggs ceased to be deposited, and 0% signifying that the ticks have deposited eggs in normal manner like the untreated control ticks.

[6] = ovicidal only (marked not adulticidal)
[7] = Table 4, concentration giving 100% inhibition, ovicidal only (marked not adulticidal)
[8] = Table 4, concentration giving 50% inhibition
[9] = Table 4, concentration giving 100% inhibition
[10] = Table 5, concentration giving 50% inhibition
[11] = Table 5, concentration giving 100% inhibition
[12] = Table 1b, concentration giving 100% inhibition
[13] = days before treatment -2 -1 0 (baseline)

Compound	Adulticidal and ovicidal effect: 50% inhibition with the stated concentration of active compound (Boophilus, Biarra strain [3]; [8])	Adulticidal and ovicidal effect: 100% inhibition with the stated concentration of active compound (Boophilus, Biarra strain [3]; [9])	Adulticidal and ovicidal effect: 50% inhibition with the stated concentration of active compound (Boophilus, Biarra strain [3]; [10])	Adulticidal and ovicidal effect: 100% inhibition with the stated concentration of active compound (Boophilus, Biarra strain [3]; [11])	other results
C=CCN1CCCC1=Nc1ccc(F)cc1Cl					Ovicidal effect: 50% inhibition with the stated concentration of active compound [1, 6]: 0.03 % by weight; Ovicidal effect: 100% inhibition with the stated concentration of active compound [1, 7]: 0.1 % by weight; Adulticidal effect (Boophilus, Biarra strain [2]): not adulticidal
CC=CCN1CCCC1=Nc1ccc(Br)cc1CC					Ovicidal effect: 50% inhibition with the stated concentration of active compound [1, 6]: 0.05 % by weight; Ovicidal effect: 100% inhibition with the stated concentration of active compound [1, 7]: 0.1 % by weight; Adulticidal effect (Boophilus, Biarra strain [2]): not adulticidal
C=CCN1CCCC1=Nc1cccc(Cl)c1Cl					Ovicidal effect: 50% inhibition with the stated concentration of active compound [1, 6]: 0.008 % by weight; Ovicidal effect: 100% inhibition with the stated concentration of active compound [1, 7]: 0.01 % by weight; Adulticidal effect (Boophilus, Biarra strain [2]): not adulticidal
CC=CCN1CCCC1=Nc1ccc(Cl)cc1Cl					Ovicidal effect: 50% inhibition with the stated concentration of active compound [1, 6]: 0.03 % by weight; Ovicidal effect: 100% inhibition with the stated concentration of active compound [1, 7]: 0.01 % by weight; Adulticidal effect (Boophilus, Biarra strain [2]): not adulticidal
C=CCN1CCCC1=Nc1ccc(Cl)c(C)c1	0.02 % by weight	0.03 % by weight			
C=C(C)CN1CCCC1=Nc1cc(Cl)c(Cl)cc1Cl			0.1 % by weight	0.3 % by weight	
CC=CCN1CCCC1=Nc1cc(Cl)c(Cl)cc1Cl			0.03 % by weight	0.1 % by weight	
C=CCCN1CCCC1=Nc1ccc(C)c(Cl)c1			0.02 % by weight	0.03 % by weight	
CCN1CCCC1=Nc1ccc(F)c(Cl)c1	0.1 % by weight	0.3 % by weight			
CCCCN1CCCC1=Nc1ccc(F)c(Cl)c1	0.03 % by weight	0.1 % by weight			
C=CCN1CCCC1=Nc1ccc(Cl)c(Br)c1	0.05 % by weight	0.1 % by weight			
C=CCN1CCCC1=Nc1ccc(Cl)c(Cl)c1 [Compound 41]					Ovicidal effect: 100% inhibition with the stated concentration of active compound [1, 12]: 0.03 % by weight; Ovicidal effect: >50% inhibition with the stated concentration of active compound ([1]; Table 1b): 0.01 % by weight; Number of female adult ticks which reach development on the cattle ([4]; days after treatment +1+2+3): 0; Number of female adult ticks which reach development on the cattle ([4]; days after treatment +4+5+6): 0; Number of female adult ticks which reach development on the cattle ([4]; days after treatment +7+8+9): 7; Number of female adult ticks which reach development on the cattle ([4]; days after treatment +10+11+12): 6; Number of female adult ticks which reach development on the cattle ([4]; days after treatment +13+14+15): 4; Number of female adult ticks which reach development on the cattle ([4]; days after treatment +16+17+18): 0; Number of female adult ticks which reach development on the cattle ([4]; days after treatment +19+20+21): 0; Number of female adult ticks which reach development on the cattle [4, 13]: 262; Total number of female adult ticks which reach development on the cattle [4]: 17
CC=CCN1CCCC1=Nc1ccc(C)c(Cl)c1			0.008 % by weight	0.1 % by weight	
CCN1CCCC1=Nc1ccc(Cl)c(Br)c1	0.05 % by weight	0.1 % by weight			
CC=CCN1CCCC1=Nc1ccc(Cl)c(C)c1			0.02 % by weight	0.03 % by weight	
CCCN1CCCC1=Nc1ccc(Cl)cc1C [Compound 211]					Ovicidal effect: 100% inhibition with the stated concentration of active compound [5]: 0.1 % by weight; Ovicidal effect: >50% inhibition with the stated concentration of active compound [5]: 0.03 % by weight

Compound	Adulticidal and ovicidal effect: 50% inhibition with the stated concentration of active compound (Boophilus, Biarra strain [3]; [8])	Adulticidal and ovicidal effect: 100% inhibition with the stated concentration of active compound (Boophilus, Biarra strain [3]; [9])	Adulticidal and ovicidal effect: 50% inhibition with the stated concentration of active compound (Boophilus, Biarra strain [3]; [10])	Adulticidal and ovicidal effect: 100% inhibition with the stated concentration of active compound (Boophilus, Biarra strain [3]; [11])	other results
C=CCN1CCCC1=Nc1ccc(C)c(Br)c1			0.03 % by weight	0.1 % by weight	
CCCN1CCCC1=Nc1ccc(Cl)c(Br)c1	0.1 % by weight	0.3 % by weight			
C=CCCN1CCCC1=Nc1ccc(Cl)cc1C			0.008 % by weight	0.01 % by weight	
Cc1cc(Cl)ccc1N=C1CCCN1C(C)C [Compound 241]					Ovicidal effect: 100% inhibition with the stated concentration of active compound [5]: 1.0 % by weight; Ovicidal effect: >50% inhibition with the stated concentration of active compound [5]: 0.3 % by weight
C=C(C)CN1CCCC1=Nc1ccc(C)c(Cl)c1			0.03 % by weight	0.1 % by weight	
C=CCN1CCCC1=Nc1ccc(F)c(Cl)c1	0.08 % by weight	0.1 % by weight			
C=C(C)CN1CCCC1=Nc1ccc(Cl)c(C)c1			0.01 % by weight	0.1 % by weight	
C=CCN1CCCC1=Nc1ccc(C)c(Cl)c1	0.01 % by weight	0.03 % by weight			
CC=CCN1CCCC1=Nc1ccc(Cl)c(Cl)c1	0.03 % by weight	0.01 % by weight			
C=CCN1CCCC1=Nc1ccc(Br)c(C)c1			0.03 % by weight	0.1 % by weight	
CCCCN1CCCC1=Nc1ccc(Cl)c(Cl)c1 [Compound 71]					Ovicidal effect: 100% inhibition with the stated concentration of active compound [1, 12]: 0.03 % by weight; Ovicidal effect: >50% inhibition with the stated concentration of active compound ([1]; Table 1b): 0.01 % by weight; Number of female adult ticks which reach development on the cattle ([4]; days after treatment +1+2+3): 3; Number of female adult ticks which reach development on the cattle ([4]; days after treatment +4+5+6): 1; Number of female adult ticks which reach development on the cattle ([4]; days after treatment +7+8+9): 0; Number of female adult ticks which reach development on the cattle ([4]; days after treatment +10+11+12): 11; Number of female adult ticks which reach development on the cattle ([4]; days after treatment +13+14+15): 1; Number of female adult ticks which reach development on the cattle ([4]; days after treatment +16+17+18): 2; Number of female adult ticks which reach development on the cattle ([4]; days after treatment +19+20+21): 0; Number of female adult ticks which reach development on the cattle [4, 13]: 231; Total number of female adult ticks which reach development on the cattle [4]: 18
CCCCN1CCCC1=Nc1ccc(Cl)c(Br)c1	0.03 % by weight	0.1 % by weight			
C=C(C)CN1CCCC1=Nc1ccc(Cl)cc1Cl			0.01 % by weight	0.03 % by weight	
C=CCN1CCCC1=Nc1ccc(Br)c(Br)c1	0.05 % by weight	0.1 % by weight			
C=CCCN1CCCC1=Nc1ccc(Cl)c(Cl)c1			0.1 % by weight	0.3 % by weight	
C=C(C)CN1CCCC1=Nc1ccc(Cl)c(Cl)c1			0.03 % by weight	0.1 % by weight	
